From US7071206B2, “Agents for treating neurodegenerative disorders” (Medivation, Inc., priority 1995, dated 2006)

Legend:
NMDA receptor [1] = test: Anti-NMDA activity: prevention of convulsions and death caused by NMDA injected into the lateral ventricle of the brain; type: in vivo; settings: mice, i.p. 40 minutes before NMDA 0.1 μg into the lateral ventricle, probit analysis
Protocol: The experiment was conducted in white non-inbred male mice of 20–24 g of weight. A solution of the test agent in 0.2 ml of 5% aqueous dimethylsulfoxide was injected intraperitoneally 40 minutes before the injection of NMDA into the lateral vehicle of the brain. For the mice that had been prepared beforehand for the experiment a skin flap on the head of each mouse was removed under ether anestesia and a hole was bored in the skull by a fine drill. NMDA (0.1 μg) in a volume of 1.4 μl was injected with a microsyringe. The microsyringe needle was immersed to a depth of 2.5 mm. After the operation, the wound was treated with a 2% novocaine solution. […] The accuracy of NMDA injection was monitored by injection of methylene blue. Two to 4 hours after the operation, the mice were used for a pharmacological experiment.
The animals inoculated with a saline solution were used as control.
Each dose of the agent was tested in a croup of 6–8 animals. The ED50 value (the dose of the agent preventing the development of convulsions and the death of 50% of the animals) was determined by a probit-analysis method (Litchfild J. T., Wicoxon F. J.—Pharmacol. Exp. Therap., 1949, v. 96, p. 99–114).

NMDA receptor [2] = settings: cited from earlier work

Structure (SMILES) | ED50 (dose preventing the development of convulsions and the death of 50% of the animals) (NMDA receptor [1]) | also measured
Cc1ccc2c(c1)c1c(n2Cc2ccccc2)CCN(C)C1 [No. 8, 2,8-dimethyl-5-benzyl-2,3,4,5-tetrahydro-1H-pyrido[4,3-b]indole] | 45 ± 5 mg/kg | 
Cc1ccc2[nH]c3c(c2c1)CN(C)CC3 [No. 3, 2,8-dimethyl-2,3,4,5-tetrahydro-1H-pyrido[4,3-b]indole] |  | ED50 (dose preventing the development of convulsions and the death of 50% of the animals) (NMDA receptor [1]; listed as 3): ~40 mg/kg
Cl.Nc1c2c(nc3ccccc13)CCCC2 [Tacrine, 9-amino-1,2,3,4-tetrahydroacridine hydrochloride, reference compound] | not active | 
Cc1ccc2[nH]c3c(c2c1)CN(C)CC3 [No. 2, 2,8-dimethyl-2,3,4,5-tetrahydro-1H-pyrido[4,3-b]indole] |  | ED50 (dose preventing the development of convulsions and the death of 50% of the animals) (NMDA receptor [1]; listed as 2): 16 ± 4 mg/kg
CN1CCc2[nH]c3ccc(Br)cc3c2C1 [No. 5, 2-methyl-8-bromo-2,3,4,5-tetrahydro-1H-pyrido[4,3-b]indole] | 29 ± 5 mg/kg | 
CN1CCc2[nH]c3ccccc3c2C1 [No. 1, 2-methyl-2,3,4,5-tetrahydro-1H-pyrido[4,3-b]indole] | 30 ± 4 mg/kg | 
c1ccc(CN2CCc3[nH]c4ccccc4c3C2)cc1 [No. 7, 2-benzyl-2,3,4,5-tetrahydro-1H-pyrido[4,3-b]indole] | 43 ± 5 mg/kg | 
Cc1ccc(CCn2c3c(c4ccccc42)CN(C)CC3)cn1 [No. 9, 2-methyl-5-[2-(6-methyl-3-pyridyl)ethyl]-2,3,4,5-tetrahydro-1H-pyrido[4,3-b]indole] | 22 ± 4 mg/kg | 
NC(CCCP(=O)(O)O)C(=O)O (stereo not drawn) [AP-5, 2-amino-5-phosphonovaleric acid] | 190 ± 20 mg/kg | side neurotoxic effect (disturbance of coordination of movement, sedative effect) (NMDA receptor [2]; in the doses that produce the anti-NMDA effect): side neurotoxic effect; ED50, anti-NMDA effect (NMDA receptor [2]; literature value): 190 mg/kg
CCN1CCc2[nH]c3ccccc3c2C1 [No. 6, 2-ethyl-2,3,4,5-tetrahydro-1H-pyrido[4,3-b]indole] | 45 ± 6 mg/kg | 
